Measurements published in the RepoRT retention time repository (doi:10.1038/s41586-021-03707-9).

Key:
[1] = Waters ACQUITY UPLC BEH C18, 100 × 2.1 mm, 1.7 µm, 40 °C, 0.28 mL/min, estimated dead time 0.63 min; A: water + 6.5 mM ammonium hydroxide; B: methanol + 6.5 mM ammonium hydroxide; gradient (min/%B) 0/0.5 4/70 4.5/98 5.4/98; conditions: stereoisomer not certain
[2] = RP, Waters ACQUITY UPLC HSS C18, 100 × 2.1 mm, 1.7 µm, 40 °C, 0.35 mL/min, estimated dead time 0.63 min; A: water + 0.1% formic acid; B: methanol + 0.1% formic acid; gradient (min/%B) 0/0.5 4/70 4.5/98 5.4/98; conditions: stereoisomer not certain

Structure (SMILES)	LC retention time [1] [min]	LC retention time [2] [min]
O=C1OC(CO)C(O)C(O)C1O (stereo not given)	0.906	0.795
CC(=O)NC(C)C(=O)O (stereo not given)	0.918	1.77
NC(C(=O)O)c1ccc(O)cc1 (stereo not given)	0.818	0.808
CC=C(C)C(=O)NCC(=O)O	2.16	2.9
NC(=O)Cc1c[nH]c2ccccc12	3.63	3.52
NC(=O)NCCCCC(N)C(=O)O (stereo not given)	0.853	0.857
O=C(O)Cc1cc(O)ccc1O	1.49	2.23
Nc1ccnc(=O)[nH]1	1	0.783
Nc1nc2ncc(CNc3ccc(C(=O)NC(CCC(=O)O)C(=O)O)cc3)nc2c(=O)[nH]1 (stereo not given)	0.847	3.01
CC(C)(C)NCC(O)c1ccc(O)c(CO)c1 (stereo not given)	3.38	2.34
CCCCCCCC(=O)OC(CC(=O)[O-])C[N+](C)(C)C (stereo not given)	5.1	4.65
CCC(C)(O)C(=O)O (stereo not given)	0.857	2.87
O=C(O)Cc1cnc[nH]1	0.817	0.825
Oc1ccc2[nH]ccc2c1	2.98	2.9
CC(=O)OC(CC(=O)[O-])C[N+](C)(C)C (stereo not given)	0.849	0.864
Cc1ncc(CO)c(C=O)c1O	1.77	0.85
COc1ccc2[nH]cc(CC(=O)O)c2c1	2.72	4.09
O=Cc1ccc(O)cc1	2.36	3.39
OCC1OC(OC2(CO)OC(CO)C(O)C2O)C(O)C(O)C1O (stereo not given)	0.962	0.86
O=C(O)CNC(=O)C=Cc1ccccc1	3.49	4.18
Nc1ncnc2c1ncn2C1CC(O)C(COP(=O)(O)O)O1 (stereo not given)	1.31	1.56
CC(=O)NC(Cc1ccccc1)C(=O)O (stereo not given)	2.99	3.99
CNC(=O)c1cccnc1	2.54	1.82

Structure (SMILES)	LC retention time [1] [min]	LC retention time [2] [min]
CC(C(=O)O)c1cccc(C(=O)c2ccccc2)c1 (stereo not given)	4.61	5.37
OCC1OC(OC2C(CO)OC(OC3C(CO)OC(O)C(O)C3O)C(O)C2O)C(O)C(O)C1O (stereo not given)	0.851	0.847
Cn1c(=O)c2[nH]cnc2n(C)c1=O	2.75	2.9
CCN(CC)CCNC(=O)c1ccc(N)cc1	3.81	2.01
OCC1OC(OCC2OC(O)C(O)C(O)C2O)C(O)C(O)C1O (stereo not given)	0.831	0.804
Nc1nc2c(ncn2C2OC3COP(=O)(O)OC3C2O)c(=O)[nH]1 (stereo not given)	1.87	1.99
O=C(O)CCCc1c[nH]c2ccccc12	3.66	4.92
CNCCc1c[nH]c2ccccc12	3.84	2.87
O=C(O)CNC(=O)c1cccnc1	1.67	1.74
O=c1ccc2cc(OC3OC(CO)C(O)C(O)C3O)c(O)cc2o1 (stereo not given)	2.17	2.78
CC(=O)NCCCCN	1.29	0.91
Nc1ccccc1C(=O)O	1.76	3.65
CCCOC(=O)c1ccc(O)cc1	5.27	5.25
CN(C)CC(=O)O	0.821	0.77
NCCCCC(NC(CCc1ccccc1)C(=O)O)C(=O)N1CCCC1C(=O)O (stereo not given)	2.96	3.22
O=C(O)c1ccnc2ccccc12	2.09	1.91
O=C(NO)c1ccccc1O	2.15	3.04
O=C(O)c1cccnc1	1.25	1.27
Nc1ncnc2c1ncn2C1OC(CO)C2OP(=O)(O)OC21 (stereo not given)	2.11	1.68
CC1NC(=O)NC1CCCCCC(=O)O (stereo not given)	2.67	3.88
O=C(NC(O)C(=O)O)c1ccccc1 (stereo not given)	2.02	2.8
O=c1ccn(C2CC(O)C(CO)O2)c(=O)[nH]1 (stereo not given)	1.87	1.85
NCCCC(=O)O	0.769	0.761

Structure (SMILES)	LC retention time [1] [min]	LC retention time [2] [min]
O=C(O)C(O)Cc1c[nH]c2ccccc12 (stereo not given)	2.59	3.93
NCCCCCCCC(=O)O	1.95	2.59
COC(=O)C(Cc1ccccc1)NC(=O)C(N)CC(=O)O (stereo not given)	3.67	3.56
CCC(C)C(=O)NCC(=O)O (stereo not given)	2.17	2.97
[2H]c1c([2H])c([2H])c(C(=O)NCC(=O)O)c([2H])c1[2H]	2.42	3.22
Cn1c(=O)c2c([nH]c(=O)n2C)n(C)c1=O	2.29	3
CCOC(=O)Cc1c[nH]c2ccccc12	5.38	5.21
C[N+](C)(C)CCCC(=O)[O-]	0.803	0.814
Cc1ncc(CO)c(CO)c1O	1.94	1.54
CCCCNC(=O)NS(=O)(=O)c1ccc(C)cc1	4.37	5.11
CC1C(=O)Nc2ccccc21 (stereo not given)	4.59	4.43
CC12CCC(=O)C=C1CCC1C2C(=O)CC2(C)C1CCC2(O)C(=O)CO (stereo not given)	5.05	4.87
CC(C)(O)CC(=O)O	1.2	–
CCCC(N)C(=O)O (stereo not given)	1.02	–
CC=C(C)C(=O)O	1.61	–
CN=C(NC#N)NCCSCc1nc[nH]c1C	3.63	–
NC(N)=NCCCC(N)C(=O)O (stereo not given)	0.845	–
CCCCCCCC(=O)O	4.74	–
O=S(=O)(O)CCO	0.866	–
COc1cc(CC(=O)O)ccc1OS(=O)(=O)O	0.848	–
Cc1ccccc1C(=O)O	2.21	–
NC(CCSSCCC(N)C(=O)O)C(=O)O (stereo not given)	0.929	–
Nc1nc2c(ncn2C2CC(O)C(COP(=O)(O)O)O2)c(=O)[nH]1 (stereo not given)	0.923	–

Structure (SMILES)	LC retention time [1] [min]	LC retention time [2] [min]
CC=CC=CC(=O)O	2.28	–
O=C(O)CCCCCCCCCCCO	4.86	–
O=C(O)c1cc(O)cc(O)c1	0.832	–
O=Cc1c[nH]c2ccccc12	4.19	–
CNC(=C[N+](=O)[O-])NCCSCc1csc(CN(C)C)n1	3.86	–
CCCCC(=O)N(Cc1ccc(-c2ccccc2-c2nn[nH]n2)cc1)C(C(=O)O)C(C)C (stereo not given)	4.48	–
CCC(O)C(=O)O (stereo not given)	0.842	–
Cc1cccc(O)c1O	4	–
CCCCCCC(=O)O	4.06	–
NCC(O)CCC(N)C(=O)O (stereo not given)	0.78	–
CNCC(=O)O	0.778	–
O=C(O)C(O)c1ccccc1 (stereo not given)	1.59	–
O=C(O)CNC(=O)c1ccco1	1.7	–
CC(=O)CCC(=O)O	0.87	–
O=CC(O)C1OC(=O)C(O)C1O (stereo not given)	0.884	–
COC(=O)Cc1ccc(O)cc1	4.14	–
O=C(O)CCc1ccccc1O	2.93	–
O=C(O)Cc1cccc(O)c1	1.79	–
NC(Cc1ccccc1)C(=O)O (stereo not given)	2.37	–
CC(C)CC(=O)C(=O)O	2.48	–
CC(CO)C(=O)O (stereo not given)	0.798	–
CC(=O)Oc1cccc(O)c1	3.06	–
Cc1ccc(OC2OC(C(=O)O)C(O)C(O)C2O)cc1 (stereo not given)	2.77	–

Structure (SMILES)	LC retention time [1] [min]	LC retention time [2] [min]
NCCC(=O)O	0.761	–
O=C(CO)C(O)C(O)C(O)CO (stereo not given)	0.816	–
O=C(O)Cc1ccccc1O	2.46	–
O=C1OC(C(O)CO)C(=O)C1=O (stereo not given)	0.862	–
NC(=O)c1ccc[n+](C2OC(COP(=O)(O)OP(=O)(O)OCC3OC(n4cnc5c(=O)[nH]cnc54)C(O)C3O)C(O)C2O)c1 (stereo not given)	1.26	–
C[N+](C)(C)CC(=O)[O-]	0.809	–
NCC(N)C(=O)O (stereo not given)	0.768	–
OCC1OC(Oc2ccc(O)cc2)C(O)C(O)C1O (stereo not given)	1.81	–
O=C(O)CNC(=O)c1cccc(O)c1	1.91	–
O=Cc1cccc(O)c1	3.55	–
CCCC(=O)Nc1ccc(OCC(O)CNC(C)C)c(C(C)=O)c1 (stereo not given)	4.82	–
CC(C)=CC(=O)SCCNC(=O)CCNC(=O)C(O)C(C)(C)COP(=O)(O)OP(=O)(O)OCC1OC(n2cnc3c(N)ncnc32)C(O)C1OP(=O)(O)O (stereo not given)	2.95	–
NC1C(O)OC(CO)C(O)C1O (stereo not given)	0.802	–
NCC1CCC(C(=O)O)CC1 (stereo not given)	0.843	–
NC(CCO)C(=O)O (stereo not given)	0.762	–
O=C(O)C(=O)Cc1c[nH]c2ccccc12	3	–
Nc1ncnc2c1ncn2C1OC(COP(=O)(O)OP(=O)(O)OC2OC(CO)C(O)C(O)C2O)C(O)C1O (stereo not given)	0.917	–
O=C(O)c1ccc(O)c(O)c1	0.797	–
Cc1ccc(OS(=O)(=O)O)cc1	2.9	–
CCC(C(=O)O)c1ccccc1 (stereo not given)	3.74	–
